From PubChem BioAssay (NCI)
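The concentration for 50% growth inhibition is given as GI50. TGI denotes the concentration required for complete inhibition of growth.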

Experiments:
Experiment in all cases: NCI anticancer screen, dose series, 384-well format
SK-OV-3 ovarian = system: SK-OV-3 ovarian
MALME-3M melanoma = system: MALME-3M melanoma
UACC-257 melanoma = system: UACC-257 melanoma
OVCAR-8 ovarian = system: OVCAR-8 ovarian
SNB-75 CNS = system: SNB-75 CNS
PC-3 prostate = system: PC-3 prostate
UACC-62 melanoma = system: UACC-62 melanoma
HL-60(TB) leukemia = system: HL-60(TB) leukemia
HT29 colon = system: HT29 colon
TK-10 renal = system: TK-10 renal
CCRF-CEM leukemia = system: CCRF-CEM leukemia
SNB-19 CNS = system: SNB-19 CNS
NCI-H226 lung = system: NCI-H226 lung
T-47D breast = system: T-47D breast
MDA-MB-468 breast = system: MDA-MB-468 breast
OVCAR-5 ovarian = system: OVCAR-5 ovarian
HCC-2998 colon = system: HCC-2998 colon
SF-539 CNS = system: SF-539 CNS
HOP-62 NSCLC = system: HOP-62 NSCLC
HCT-15 colon = system: HCT-15 colon
KM12 colon = system: KM12 colon
786-0 renal = system: 786-0 renal
HOP-92 NSCLC = system: HOP-92 NSCLC
SF-268 CNS = system: SF-268 CNS
OVCAR-3 ovarian = system: OVCAR-3 ovarian
K-562 leukemia = system: K-562 leukemia
RXF 393 renal = system: RXF 393 renal
SF-295 CNS = system: SF-295 CNS
MOLT-4 leukemia = system: MOLT-4 leukemia
IGROV1 ovarian = system: IGROV1 ovarian
DU-145 prostate = system: DU-145 prostate
UO-31 renal = system: UO-31 renal
SN12C renal = system: SN12C renal
NCI/ADR-RES ovarian = system: NCI/ADR-RES ovarian
ACHN renal = system: ACHN renal
NCI-H460 NSCLC = system: NCI-H460 NSCLC
OVCAR-4 ovarian = system: OVCAR-4 ovarian
NCI-H522 lung = system: NCI-H522 lung
SK-MEL-5 melanoma = system: SK-MEL-5 melanoma
NCI-H23 lung = system: NCI-H23 lung
A549 NSCLC = system: A549 NSCLC
NCI-H322M lung = system: NCI-H322M lung
SW-620 colon = system: SW-620 colon
A498 renal = system: A498 renal
LOX IMVI melanoma = system: LOX IMVI melanoma
BT-549 breast = system: BT-549 breast
SK-MEL-28 melanoma = system: SK-MEL-28 melanoma
MDA-MB-435 melanoma = system: MDA-MB-435 melanoma
MCF7 breast = system: MCF7 breast
SR leukemia = system: SR leukemia
EKVX NSCLC = system: EKVX NSCLC
RPMI-8226 leukemia = system: RPMI-8226 leukemia
HS 578T breast = system: HS 578T breast
CAKI-1 renal = system: CAKI-1 renal
M14 melanoma = system: M14 melanoma
MDA-MB-231 breast = system: MDA-MB-231 breast
COLO 205 colon = system: COLO 205 colon

`Cc1cc(-c2ccc(C3C(C#N)=C(N)Oc4c3c(=O)oc3ccccc43)cc2)cnc1F` (centres undefined) was tested. Which GI50 (SK-OV-3 ovarian) did it give?
The GI50 was 45.9 µM.

What about the TGI (SK-OV-3 ovarian) of the same molecule?
Its TGI is over 100 µM.

And the GI50 (MALME-3M melanoma)?
Its GI50 is 47.7 µM.

And the TGI (MALME-3M melanoma)?
The TGI was over 100 µM.

What about the GI50 (UACC-257 melanoma) of the same molecule?
The GI50 was 58.1 µM.

And the TGI (UACC-257 melanoma)?
Its TGI is over 100 µM.

What about the GI50 (OVCAR-8 ovarian) of the same molecule?
Its GI50 is 38.5 µM.

What about the TGI (OVCAR-8 ovarian) of the same molecule?
The TGI was over 100 µM.

What about the GI50 (SNB-75 CNS) of the same molecule?
The GI50 was 40.9 µM.

And the TGI (SNB-75 CNS)?
Its TGI is over 100 µM.

What about the GI50 (PC-3 prostate) of the same molecule?
Its GI50 is 53.1 µM.

And the TGI (PC-3 prostate)?
The TGI was over 100 µM.

And the GI50 (UACC-62 melanoma)?
The GI50 was 40.1 µM.

What about the TGI (UACC-62 melanoma) of the same molecule?
The TGI was over 100 µM.

And the GI50 (HL-60(TB) leukemia)?
The GI50 was 24.7 µM.

What about the TGI (HL-60(TB) leukemia) of the same molecule?
Its TGI is 44.9 µM.

And the GI50 (HT29 colon)?
Its GI50 is 25.1 µM.

And the TGI (HT29 colon)?
The TGI was 65 µM.

And the GI50 (TK-10 renal)?
The GI50 was 30.3 µM.

And the TGI (TK-10 renal)?
Its TGI is 82.1 µM.

What about the GI50 (CCRF-CEM leukemia) of the same molecule?
Its GI50 is 17.5 µM.

And the TGI (CCRF-CEM leukemia)?
Its TGI is 33.7 µM.

What about the GI50 (SNB-19 CNS) of the same molecule?
The GI50 was 62.9 µM.

What about the TGI (SNB-19 CNS) of the same molecule?
The TGI was over 100 µM.

What about the GI50 (NCI-H226 lung) of the same molecule?
The GI50 was 18.4 µM.

And the TGI (NCI-H226 lung)?
The TGI was 59.3 µM.

What about the GI50 (T-47D breast) of the same molecule?
The GI50 was 46.4 µM.

What about the TGI (T-47D breast) of the same molecule?
Its TGI is over 100 µM.

What about the GI50 (MDA-MB-468 breast) of the same molecule?
Its GI50 is 24 µM.

And the TGI (MDA-MB-468 breast)?
The TGI was 49.2 µM.

What about the GI50 (OVCAR-5 ovarian) of the same molecule?
Its GI50 is 37.4 µM.

And the TGI (OVCAR-5 ovarian)?
Its TGI is over 100 µM.

And the GI50 (HCC-2998 colon)?
The GI50 was 29.7 µM.

What about the TGI (HCC-2998 colon) of the same molecule?
Its TGI is 80.3 µM.

And the GI50 (SF-539 CNS)?
Its GI50 is 24.8 µM.

What about the TGI (SF-539 CNS) of the same molecule?
The TGI was 55.6 µM.

What about the GI50 (HOP-62 NSCLC) of the same molecule?
Its GI50 is 34.7 µM.

What about the TGI (HOP-62 NSCLC) of the same molecule?
Its TGI is over 100 µM.

What about the GI50 (HCT-15 colon) of the same molecule?
The GI50 was 18.9 µM.

And the TGI (HCT-15 colon)?
The TGI was 39.3 µM.

What about the GI50 (KM12 colon) of the same molecule?
The GI50 was over 100 µM.

What about the TGI (KM12 colon) of the same molecule?
The TGI was over 100 µM.

What about the GI50 ([…]-0 renal) of the same molecule?
The GI50 was 43.2 µM.

And the TGI (786-0 renal)?
Its TGI is over 100 µM.

And the GI50 (HOP-92 NSCLC)?
Its GI50 is 13.9 µM.

What about the TGI (HOP-92 NSCLC) of the same molecule?
Its TGI is 39.7 µM.

What about the GI50 (SF-268 CNS) of the same molecule?
The GI50 was 50.1 µM.

And the TGI (SF-268 CNS)?
Its TGI is over 100 µM.

And the GI50 (OVCAR-3 ovarian)?
The GI50 was 26.7 µM.

And the TGI (OVCAR-3 ovarian)?
The TGI was 57.1 µM.

What about the GI50 (K-562 leukemia) of the same molecule?
The GI50 was 33.9 µM.

What about the TGI (K-562 leukemia) of the same molecule?
Its TGI is over 100 µM.

What about the GI50 (RXF 393 renal) of the same molecule?
The GI50 was 17.4 µM.

What about the TGI (RXF 393 renal) of the same molecule?
The TGI was 32.2 µM.

And the GI50 (SF-295 CNS)?
Its GI50 is 46.9 µM.

And the TGI (SF-295 CNS)?
The TGI was over 100 µM.

And the GI50 (MOLT-4 leukemia)?
Its GI50 is 15 µM.

And the TGI (MOLT-4 leukemia)?
Its TGI is 28.4 µM.

And the GI50 (IGROV1 ovarian)?
Its GI50 is 42.5 µM.

And the TGI (IGROV1 ovarian)?
The TGI was over 100 µM.

And the GI50 (DU-145 prostate)?
The GI50 was 39.3 µM.

And the TGI (DU-145 prostate)?
The TGI was over 100 µM.

And the GI50 (UO-31 renal)?
The GI50 was 30.1 µM.

And the TGI (UO-31 renal)?
The TGI was over 100 µM.

And the GI50 (SN12C renal)?
Its GI50 is 47.7 µM.

What about the TGI (SN12C renal) of the same molecule?
Its TGI is over 100 µM.

What about the GI50 (NCI/ADR-RES ovarian) of the same molecule?
Its GI50 is 40 µM.

And the TGI (NCI/ADR-RES ovarian)?
The TGI was over 100 µM.

And the GI50 (ACHN renal)?
The GI50 was 42.6 µM.

And the TGI (ACHN renal)?
The TGI was over 100 µM.

What about the GI50 (NCI-H460 NSCLC) of the same molecule?
The GI50 was 37.1 µM.

And the TGI (NCI-H460 NSCLC)?
Its TGI is over 100 µM.

And the GI50 (OVCAR-4 ovarian)?
The GI50 was 33.9 µM.

What about the TGI (OVCAR-4 ovarian) of the same molecule?
The TGI was over 100 µM.

And the GI50 (NCI-H522 lung)?
The GI50 was 17.5 µM.

And the TGI (NCI-H522 lung)?
The TGI was 35.4 µM.

And the GI50 (SK-MEL-5 melanoma)?
The GI50 was 29.8 µM.

What about the TGI (SK-MEL-5 melanoma) of the same molecule?
Its TGI is 78.1 µM.

And the GI50 (NCI-H23 lung)?
The GI50 was 29.6 µM.

What about the TGI (NCI-H23 lung) of the same molecule?
The TGI was over 100 µM.

And the GI50 (A549 NSCLC)?
Its GI50 is 54.5 µM.

What about the TGI (A549 NSCLC) of the same molecule?
Its TGI is over 100 µM.

And the GI50 (NCI-H322M lung)?
Its GI50 is 25.4 µM.

What about the TGI (NCI-H322M lung) of the same molecule?
The TGI was 67 µM.

And the GI50 (SW-620 colon)?
The GI50 was 58.3 µM.

And the TGI (SW-620 colon)?
The TGI was over 100 µM.

What about the GI50 (A498 renal) of the same molecule?
Its GI50 is 31.3 µM.

What about the TGI (A498 renal) of the same molecule?
The TGI was over 100 µM.

What about the GI50 (LOX IMVI melanoma) of the same molecule?
Its GI50 is 21.9 µM.

And the TGI (LOX IMVI melanoma)?
Its TGI is 45.4 µM.

What about the GI50 (BT-549 breast) of the same molecule?
The GI50 was 27.9 µM.

And the TGI (BT-549 breast)?
Its TGI is over 100 µM.

What about the GI50 (SK-MEL-28 melanoma) of the same molecule?
The GI50 was over 100 µM.

And the TGI (SK-MEL-28 melanoma)?
The TGI was over 100 µM.

What about the GI50 (MDA-MB-435 melanoma) of the same molecule?
The GI50 was 89 µM.

And the TGI (MDA-MB-435 melanoma)?
Its TGI is over 100 µM.

What about the GI50 (MCF7 breast) of the same molecule?
The GI50 was 38 µM.

What about the TGI (MCF7 breast) of the same molecule?
Its TGI is over 100 µM.

What about the GI50 (SR leukemia) of the same molecule?
The GI50 was 17.1 µM.

And the TGI (SR leukemia)?
The TGI was 32.2 µM.

What about the GI50 (EKVX NSCLC) of the same molecule?
The GI50 was 43.7 µM.

What about the TGI (EKVX NSCLC) of the same molecule?
Its TGI is over 100 µM.

What about the GI50 (RPMI-8226 leukemia) of the same molecule?
The GI50 was 14 µM.

And the TGI (RPMI-8226 leukemia)?
The TGI was 33.5 µM.

And the GI50 (HS 578T breast)?
The GI50 was 29.1 µM.

What about the TGI (HS 578T breast) of the same molecule?
The TGI was 79.9 µM.

What about the GI50 (CAKI-1 renal) of the same molecule?
The GI50 was 43.6 µM.

And the TGI (CAKI-1 renal)?
The TGI was over 100 µM.

And the GI50 (M14 melanoma)?
Its GI50 is 90.2 µM.

And the TGI (M14 melanoma)?
The TGI was over 100 µM.

And the GI50 (MDA-MB-231 breast)?
The GI50 was 39.7 µM.

What about the TGI (MDA-MB-231 breast) of the same molecule?
The TGI was over 100 µM.

What about the GI50 (COLO 205 colon) of the same molecule?
The GI50 was 64.6 µM.

What about the TGI (COLO 205 colon) of the same molecule?
The TGI was over 100 µM.
